According to the supplement of paper PMC10307832:

Columns and labels:
Assay in all cases: relative viability (nuclei count vs DMSO), 5 days (fraction); higher = more cells survive
[1] = compound: CC(C)C[C@@H](C(=O)N[C@H](C(=O)OC1CCCC1)c1ccccc1)[C@H](O)C(=O)NO [Tosedostat] + Nc1nc2[nH]cc(CCc3ccc(C(=O)N[C@@H](CCC(=O)O)C(=O)O)cc3)c2c(=O)[nH]1 [Pemetrexed] (partner 0.2 µM)
Procedure, shortened: (§1)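 Lung cancer cell lines, seeded in 1536-well plates, were treated the following day by pin tool with a single drug or with five library-drug doses (not always all listed) in √10 steps on top of a fixed anchor-drug dose. Cells were fixed and nuclei stained in one step after 5 days, and nuclei were counted. Relative viability is the nuclei count for treated wells divided by that for vehicle wells, reported as medians of duplicate plates.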

[2] = compound: CC1=NN=C(O1)C2=NN=C(C=C2)N3CCC(CC3)OC4=C(C=CC(=C4)F)Cl + CC(=O)Nc1cccc(-n2c(=O)n(C3CC3)c(=O)c3c(Nc4ccc(I)cc4F)n(C)c(=O)c(C)c32)c1 [Trametinib] (partner 0.02 µM)
Procedure, shortened: as §1

[3] = compound: CC1=NN=C(O1)C2=NN=C(C=C2)N3CCC(CC3)OC4=C(C=CC(=C4)F)Cl + COc1cc2c(Oc3ccc(NC(=O)C4(C(=O)Nc5ccc(F)cc5)CC4)cc3F)ccnc2cc1OCCCN1CCOCC1 [Foretinib] (partner 0.25 µM)
Procedure, shortened: as §1

[4] = compound: CC1=NN=C(O1)C2=NN=C(C=C2)N3CCC(CC3)OC4=C(C=CC(=C4)F)Cl + Nc1nc2[nH]cc(CCc3ccc(C(=O)N[C@@H](CCC(=O)O)C(=O)O)cc3)c2c(=O)[nH]1 [Pemetrexed] (partner 0.2 µM)
Procedure, shortened: as §1

Cell Line	relative viability ([1]; first compound 0.02 µM)	relative viability ([1]; first compound 0.06325 µM)	relative viability ([1]; first compound 0.2 µM)	relative viability ([1]; first compound 0.6325 µM)	relative viability ([1]; first compound 2 µM)	relative viability ([2]; first compound 0.253 µM)	relative viability ([2]; first compound 0.8 µM)	relative viability ([2]; first compound 2.53 µM)	relative viability ([2]; first compound 8 µM)	relative viability ([3]; first compound 0.253 µM)	relative viability ([3]; first compound 0.8 µM)	relative viability ([3]; first compound 2.53 µM)	relative viability ([3]; first compound 8 µM)	relative viability ([4]; first compound 0.253 µM)	relative viability ([4]; first compound 0.8 µM)	relative viability ([4]; first compound 2.53 µM)	relative viability ([4]; first compound 8 µM)
NCI-H2405	1.02	1.04	1.05	0.875	0.85	0.526	0.451	0.432	0.411	0.582	0.564	0.546	0.555	0.595	0.562	0.563	0.594
NCI-H2126	0.644	0.698	0.708	0.705	0.611	0.528	0.532	0.504	0.486	0.982	0.932	0.958	0.985	0.69	0.607	0.635	0.606
SW 900	0.513	0.527	0.527	0.474	0.486	–	0.749	0.862	0.621	–	–	0.822	0.73	–	0.444	0.486	0.449
NCI-H460	0.0658	0.062	0.0697	0.0606	0.0547	0.0953	0.176	0.175	0.15	0.282	0.299	0.273	0.243	0.0764	0.0663	0.0645	0.071
NCI-H1993	0.478	0.619	0.716	0.532	0.485	0.453	0.523	0.655	0.593	0.664	0.682	0.709	0.7	0.533	0.499	0.566	0.541
HCC-78	0.923	1.02	0.838	0.895	0.922	0.338	0.396	0.433	0.365	0.465	0.51	0.467	0.516	0.888	0.879	0.872	0.853
LU99A	0.172	0.165	0.195	0.212	0.191	0.525	0.59	0.577	0.509	0.826	0.868	0.836	0.742	0.149	0.18	0.162	0.164
NCI-H520	0.728	0.773	0.743	0.782	0.734	0.656	0.578	0.648	0.475	0.653	–	0.757	0.77	0.644	0.543	0.642	0.471
HCC-827	0.24	0.265	0.255	0.318	0.353	0.42	0.343	0.431	0.399	0.381	0.239	0.353	0.318	0.257	0.244	0.246	0.224
NCI-H1975	0.313	0.286	0.325	0.271	0.23	0.171	0.307	0.373	0.385	–	0.929	0.834	0.757	0.217	0.272	0.271	0.25
NCI-H2085	–	1.02	0.929	0.959	0.714	0.326	0.514	0.423	0.363	0.808	–	0.744	0.698	0.801	0.676	0.841	0.696
NCI-H1734	0.455	0.446	0.428	0.517	0.435	0.642	0.652	0.663	0.597	0.861	0.857	0.769	0.699	0.433	0.364	0.434	0.438
NCI-H650	1.01	0.846	0.895	0.873	0.804	0.933	0.874	0.934	0.862	1.01	0.959	0.911	1.06	0.943	0.65	0.781	0.814
LCLC-103H	0.507	0.522	0.533	0.494	0.57	0.533	0.522	0.489	0.431	0.579	0.596	0.494	0.582	0.435	0.418	0.403	0.409
LCLC-97TM1	0.176	0.175	0.192	0.203	0.254	0.175	–	0.191	0.148	0.481	0.439	0.433	0.381	0.184	–	0.199	0.184
SK-LU-1	1	0.9	1.05	0.962	0.868	0.47	0.417	0.531	0.407	0.698	–	0.696	0.557	1.03	0.9	0.867	0.829
HOP-62	0.34	0.328	0.38	0.431	0.472	0.361	0.361	0.361	0.397	0.806	0.833	0.806	0.543	0.315	0.318	0.231	0.17
NCI-H23	0.745	0.702	0.691	0.725	0.361	0.34	0.37	0.372	0.381	0.981	–	0.792	0.841	0.669	0.543	0.698	0.622
